Laboratory results reported in patent US4444758A, “Nonapeptide for treating addictive drug withdrawal conditions” (priority 1981, dated 1984).
Where no end group is shown, it is not given here.

Key:
[1] = test system: morphine-dependent mouse; assay: Inhibition of the naloxone-triggered withdrawal leaps of the morphine-dependent mouse; format: in vivo; details: 30 mg . kg^-1 s.c., positive control
Procedure: In order to produce the dependence a compressed tablet, which contained 75 mg of morphine (base) and which progressively dissolved with continuous liberation of the morphine, was implanted under the dorsal skin of male mice (weight about 22 g). On the third day after the implantation the morphine antagonist naloxone in a dosage of 0.1 mg/kg was administered subcutaneously to the animals in order to trigger off the withdrawal leaps.
After the injection, the leaps of each individual animal were counted for 20 minutes. The group median value was calculated from the total leaps of 8 animals, which formed a group. As the positive control the animals of one group received 30 mg/kg of morphine subcutaneously 30 minutes before administration of the antagonist. Two to four groups received 10 ml/kg of physiological sodium chloride solution (negative control) 2 hours before the naloxone administration intravenously. The remaining groups received DSIP in various dosages (0.01, 0.015, 0.03, 0.06 and 0.1 mg/kg, intravenously and 0.03, 0.1 and 0.3 mg/kg, subcutaneously) 2 hours before the naloxone administration. The dosage median values and, respectively, control median values were calculated from all individual values per dosage and, respectively, the positive and negative controls.

[2] = test system: rats; details: rat, in vivo
Procedure: (§1) Toxicological studies were carried out on 12 male and 12 female rats as well as on 3 male and 3 female dogs per dosage. For this purpose DSIP was dissolved in physiological sodium chloride solution and administered intravenously daily for 4 weeks in the dosages of 0.6, 1.8 and 6 mg/kg. At an interval of 2 weeks during these studies the hematological, hematochemical and the urine status were determined, and the electrocardiogram was recorded and analyzed
(§2) At the termination of the aforementioned studies all animals were painlessly killed and there followed the autopsy besides the removal of organ samples for histological investigations.

[3] = test system: dogs; details: dog, in vivo
Procedure: as §1, §2

[4] = test system: alcoholic or methadone- or heroin-dependent patients; details: human, in vivo
Procedure: Of the 25 alcoholic patients 8 were on admission already in delirium tremens to a medium to severe degrees. After the first subjective and objective withdrawal signs manifested themselves the patients received up to 4 intravenous infusions of in each case 0.0214 mg/kg of DSIP daily. For this purpose, the substance was dissolved in physiological sodium chloride solution and infused in the course of 5 minutes.
The duration of treatment amounted to a maximum of 3 days.

[5] = test system: rats; assay: 4-week intravenous toxicological study in rats
Procedure: as §1, §2

[6] = test system: dogs; assay: 4-week intravenous toxicological study in dogs
Procedure: as §1, §2

[7] = maximum dosage (6 mg/kg i.v. daily for 4 weeks)

Compound | Leaps/animal (median) ([1]; 30 minutes before naloxone 0.1 mg/kg s.c., leaps counted for 20 minutes) | % of a negative control ([1]; 30 minutes before naloxone) | Tolerance of the dosages (side effects) [2] | Local tolerance at the injection sites ([2]; iv) | Tolerance of the dosages (side effects) [3] | Local tolerance at the injection sites ([3]; iv) | Tolerance of DSIP: poor, number of patients [4] | Histological analysis of about 30 organs and of the injection sites ([5]; i.v. daily for 4 weeks) | Changes in the electrocardiogram [5, 7] | Hematological, hematochemical and urine values [5, 7] | Histological analysis of about 30 organs and of the injection sites ([6]; i.v. daily for 4 weeks) | Changes in the electrocardiogram [6, 7] | Hematological, hematochemical and urine values [6, 7]
CN1CC[C@]23c4c5ccc(O)c4O[C@H]2[C@@H](O)C=C[C@H]3[C@H]1C5 [Morphine, morphine] | 43 Leaps/animal | 27% |  |  |  |  |  |  |  |  |  |  | 
WAGGDASGE [DSIP, Trp--Ala--Gly--Gly--Asp--Ala--Ser--Gly--Glu] |  |  | tolerated without any side effects | excellent | tolerated without any side effects | excellent | 2 patients | not the slightest evidence of damage to organs | no changes in the electrocardiogram | within the physiological limits | not the slightest evidence of damage to organs | no changes in the electrocardiogram | within the physiological limits
